The results in this text go back to patent US20260070886A1, “QUINOLINE PIPERAZINE DERIVATIVES, PHARMACEUTICAL COMPOSITION AND USES THEREOF” (priority 2022, published 2026).

Holding throughout (format): cell-based
One data set relates to NCI-H-522 cells. The experiment in a line: Cell cytotoxicity assay, NCI-H-522 cells. Particulars: Homo sapiens, NCI-H522, 72 hours, percent cytotoxicity against DMSO control; for cytotoxicity at 1 µM: 1 μM compound, read-out: Cell toxicity NCI-H-522 cells 1 μM; for cytotoxicity at 10 µM: 10 μM compound, read-out: Cell toxicity NCI-H-522 cells 10 μM. An excerpt:
(§1) The following human derived non-small cell lung cancer cell lines were used to test the efficiency of the compounds to cause cell death and assess the anti-cancer properties of said compounds: 1. A549 cells: adenocarcinomic human alveolar basal epithelial cells; these cells are used as models for the study of lung cancer and the development of drug therapies against it • 2. NCI-H-460 cells are also human lung cancer cells, and • 3. NCI-H-522 cells are also human lung cancer cells.
(§2) 500 cells/well/30 μL were seeded in a 384 well cell culture plate. Incubated over night at 37° C., 5% CO2 in cell culture incubator. 10 μL of 4× compound was added to the plates, and incubated for 72 hours at 37° C., 5% CO2 in cell culture incubator. Assay DMSO control were included for 0% cytotoxicity control. Assay was terminated by addition of 10 μL of the reagent CTG 2.0 detection reagent #G9242. Plates were incubated for 20 minute incubation at room temperature with shaking Plate were read in Envision. Ultrasensitive luminescence and data was analyzed and percent cytotoxicity of compounds was determined against DMSO control.
(§3) All the compounds, A1-A116, were tested for cell toxicity using said non-small cell lung cancer cell lines using the above described method.

The test system of data set [1] is Non-small cell lung cancer cell lines. The experiment in a line: Cell toxicity assay, overall statement. Particulars: summary in words of Table 6.
Text: as §1, §2, §3
These selected derivatives of Formula A were further tested to confirm their efficiency as anti-cancer compounds.

The test system of a further data set is NCI-H-460 cells. The experiment in a line: Cell cytotoxicity assay, NCI-H-460 cells. The note with it: Homo sapiens, NCI-H460, 72 hours, percent cytotoxicity against DMSO control; for cytotoxicity at 1 µM: 1 μM compound, read-out: Cell toxicity NCI-H-460 cells 1 μM; for cytotoxicity at 10 µM: 10 μM compound, read-out: Cell toxicity NCI-H-460 cells 10 μM.
Text: as §1, §2, §3

A further data set deals with A549 cells. The data set can be described thus: Cell cytotoxicity assay, A549 cells. Particulars: Homo sapiens, 72 hours, percent cytotoxicity against DMSO control; for cytotoxicity at 1 µM: 1 μM compound, read-out: Cell toxicity A549 cells 1 μM; for cytotoxicity at 10 µM: 10 μM compound, read-out: Cell toxicity A549 cells 10 μM.
Text: as §1, §2, §3

Each structure is given as a SMILES string.

Take `FC(F)(F)c1cc(N2CCN(c3ccnc4cc(Cl)ccc34)CC2)nc(N2CCOCC2)n1` [Compound A24, 4-(4-(4-(7-chloroquinolin-4-yl)piperazin-1-yl)-6-(trifluoromethyl)pyrimidin-2-yl)morpholine]: the results for the cytotoxicity at 1 µM in the data set with NCI-H-522 cells, in the data set on NCI-H-460 cells and in the data set with A549 cells were 0%, -9% and -1%, respectively. Moreover, the cytotoxicity at 10 µM in the data set on NCI-H-522 cells is 8%; in the data set with NCI-H-460 cells it was -6%; in the data set on A549 cells, 22%. Moreover, the “activity against Non-small cell lung cancer (cell toxicity)” value in data set [1] is given as “active”.
On to `Fc1cccc(F)c1Nc1nc(N2CCN(c3ccnc4cc(Cl)ccc34)CC2)cc(C(F)(F)F)n1` [Compound A33, 4-(4-(7-chloroquinolin-4-yl)piperazin-1-yl)-N-(2,6-difluorophenyl)-6-(trifluoromethyl)pyrimidin-2-amine], for which the cytotoxicity at 1 µM in the data set on NCI-H-522 cells is 2%; in the data set with NCI-H-460 cells, -9%; in the data set with A549 cells, 8%. The figures for the cytotoxicity at 10 µM in the data set on NCI-H-522 cells, in the data set with NCI-H-460 cells and with A549 cells were 17%, 3% and -8%, respectively. Further, the “activity against Non-small cell lung cancer (cell toxicity)” value in data set [1] is reported as “active”.
In the case of `FC(F)(F)c1cc(N2CCN(c3ccnc4cc(Cl)ccc34)CC2)nc(Nc2ccncc2)n1` [Compound A36, 4-(4-(7-chloroquinolin-4-yl)piperazin-1-yl)-N-(pyridin-4-yl)-6-(trifluoromethyl)pyrimidin-2-amine], the cytotoxicity at 1 µM is 2% in the data set with NCI-H-522 cells, -11% in the data set with NCI-H-460 cells and 0% in the data set with A549 cells. Moreover, the cytotoxicity at 10 µM amounted to 72% with NCI-H-522 cells, 98% with NCI-H-460 cells and 99% in the data set with A549 cells. Moreover, in data set [1], the “activity against Non-small cell lung cancer (cell toxicity)” value was “active”.
`Cc1cc(N2CCN(c3ccnc4cc(Cl)ccc34)CC2)nc(Nc2ccccc2)n1` [Compound A39, 4-(4-(7-chloroquinolin-4-yl)piperazin-1-yl)-6-methyl-N-phenylpyrimidin-2-amine]: the figures for the cytotoxicity at 1 µM in the data set on NCI-H-522 cells, with NCI-H-460 cells and in the data set with A549 cells were 1%, -11% and 4%, respectively. For the same compound, the cytotoxicity at 10 µM in the data set on NCI-H-522 cells is 15%; in the data set with NCI-H-460 cells it was -4%; in the data set with A549 cells, 18%. The “activity against Non-small cell lung cancer (cell toxicity)” value in data set [1] is recorded as “active”.
As to `FC(F)(F)c1cc(N2CCN(c3ccnc4cc(Cl)ccc34)CC2)nc(Nc2ccccc2)n1` [Compound A40, 4-(4-(7-chloroquinolin-4-yl)piperazin-1-yl)-N-phenyl-6-(trifluoromethyl)pyrimidin-2-amine], the cytotoxicity at 1 µM was 6% in the data set on NCI-H-522 cells, -12% with NCI-H-460 cells and 15% with A549 cells. Further, the cytotoxicity at 10 µM in the data set on NCI-H-522 cells is 11%; with NCI-H-460 cells it was -7%; in the data set with A549 cells, 8%. For the same compound, the “activity against Non-small cell lung cancer (cell toxicity)” value in data set [1] is on record as “active”.
As for `COc1cc(Nc2nccc(N3CCN(c4ccnc5cc(Cl)ccc45)CC3)n2)cc(OC)c1` [Compound A41, 4-(4-(7-chloroquinolin-4-yl)piperazin-1-yl)-N-(3,5-dimethoxyphenyl)pyrimidin-2-amine], the cytotoxicity at 1 µM in the data set on NCI-H-522 cells was 7%; in the data set on NCI-H-460 cells it was 2%; in the data set with A549 cells it was 23%. For the same compound, the cytotoxicity at 10 µM was determined as 56% with NCI-H-522 cells, 28% in the data set on NCI-H-460 cells and 42% in the data set with A549 cells. For the same compound, the “activity against Non-small cell lung cancer (cell toxicity)” value in data set [1] was “active”.
For `COc1cc(Nc2nc(C)cc(N3CCN(c4ccnc5cc(C(F)(F)F)ccc45)CC3)n2)cc(OC)c1` [Compound A44, N-(3,5-dimethoxyphenyl)-4-methyl-6-(4-(7-(trifluoromethyl)quinolin-4-yl)piperazin-1-yl)pyrimidin-2-amine], the cytotoxicity at 1 µM in the data set on NCI-H-522 cells amounted to 8%; with NCI-H-460 cells, 0%; in the data set on A549 cells, 26%. The cytotoxicity at 10 µM with NCI-H-522 cells was 26%; with NCI-H-460 cells, 7%; with A549 cells it was 18%. Further, the “activity against Non-small cell lung cancer (cell toxicity)” value in data set [1] is recorded as “active”.
`COc1cc(Nc2nc(N3CCN(c4ccnc5cc(C(F)(F)F)ccc45)CC3)cc(C(F)(F)F)n2)cc(OC)c1` [Compound A45, N-(3,5-dimethoxyphenyl)-4-(trifluoromethyl)-6-(4-(7-(trifluoromethyl)quinolin-4-yl)piperazin-1-yl)pyrimidin-2-amine]: the cytotoxicity at 1 µM in the data set on NCI-H-522 cells was 7%; with NCI-H-460 cells, 0%; in the data set on A549 cells, 8%. Besides, the cytotoxicity at 10 µM in the data set on NCI-H-522 cells came to 55%; in the data set on NCI-H-460 cells, 12%; with A549 cells, 83%. In addition, the “activity against Non-small cell lung cancer (cell toxicity)” value in data set [1] is reported as “active”.
Regarding `COc1cc(Nc2nc(C)cc(N3CCN(c4ncnc5ccccc45)CC3)n2)cc(OC)c1` [Compound A46, N-(3,5-dimethoxyphenyl)-4-methyl-6-(4-(quinazolin-4-yl)piperazin-1-yl)pyrimidin-2-amine], the cytotoxicity at 1 µM in the data set with NCI-H-522 cells was 2%; with NCI-H-460 cells, -2%; with A549 cells, 25%. Moreover, the cytotoxicity at 10 µM in the data set on NCI-H-522 cells is 66%; in the data set with NCI-H-460 cells it was 44%; in the data set on A549 cells it was 98%. Further, in data set [1], the “activity against Non-small cell lung cancer (cell toxicity)” value is “active”.
For the compound `COc1cc(Nc2nc(N3CCN(c4ncnc5ccccc45)CC3)cc(C(F)(F)F)n2)cc(OC)c1` [Compound A47, N-(3,5-dimethoxyphenyl)-4-(4-(quinazolin-4-yl)piperazin-1-yl)-6-(trifluoromethyl)pyrimidin-2-amine], the values for the cytotoxicity at 1 µM in the data set with NCI-H-522 cells, with NCI-H-460 cells and in the data set with A549 cells were 45%, 4% and 38%, respectively. Moreover, the cytotoxicity at 10 µM in the data set on NCI-H-522 cells is 43%; in the data set with NCI-H-460 cells, 12%; with A549 cells, 44%. For the same compound, the “activity against Non-small cell lung cancer (cell toxicity)” value in data set [1] is reported as “active”.
